# Results from paper PMC4561207 (Child's nervous system : ChNS : official journal of the …, 2015).
# “Also recorded” adds a separate entry of the source.
# Test: Toxicities attributed to Cediranib
# Format: in vivo, human
structure (smiles),measurement,setting,value
"COc1cc2c(Oc3ccc4[nH]c(C)cc4c3F)ncnc2cc1OCCCN1CCCC1 [cediranib, Cediranib]","Eye disorders - Other, specify, events (patients)",grade 3 TOX,1(1)
same,"Fatigue, events (patients)",grade 3 TOX,2(2)
same,"Headache, events (patients)",grade 3 TOX,2(2)
same,"Hydrocephalus, events (patients)",grade 3 TOX,1(1)
same,"Hypertension, events (patients)",grade 3 TOX,10(10)
same,"Hypertriglyceridemia, events (patients)",grade 3 TOX,1(1)
same,"Hypokalemia, events (patients)",grade 3 TOX,2(1)
same,"Hyponatremia, events (patients)",grade 3 TOX,3(3)
same,"Lipase increased, events (patients)",grade 3 TOX,1(1)
same,"Lymphocyte count decreased, events (patients)",grade 3 TOX,5(3)
same,"Nausea, events (patients)",grade 3 TOX,1(1)
same,"Neutrophil count decreased, events (patients)",grade 3 TOX,2(2)
same,"Palmar-plantar erythrodysesthesia syndrome, events (patients)",grade 3 TOX,3(3)
same,"Proteinuria, events (patients)",grade 3 TOX,3(3)
same,"Reversible posterior leukoencephalopathy syndrome, events (patients)",grade 3 TOX,1(1)
same,"Vomiting, events (patients)",grade 3 TOX,1(1)
same,"Weight loss, events (patients)",grade 3 TOX,1(1)
same,"White blood cell decreased, events (patients)",grade 3 TOX,1(1)
same,"Alanine aminotransferase increased, events (patients)",grade 4 TOX,1(1)
same,"Aspartate aminotransferase increased, events (patients)",grade 4 TOX,1(1)
same,"Hypothyroidism, events (patients)",grade 4 TOX,1(1)
same,"Lymphocyte count decreased, events (patients)",grade 4 TOX,1(1)
same,"Nervous system disorders - Other, specify, events (patients)",grade 4 TOX,1(1)
same,"Papilledema, events (patients)",grade 4 TOX,1(1)
same,"fatigue, number of patients","human, in vivo",16
same,left ventricular dysfunction,"human, in vivo",No left ventricular dysfunction was identified in any of the patients; also recorded: No dose-limiting decreases in left ventricular function were observed
same,"palmar-plantar erythrodysesthesia syndrome, number of patients","human, in vivo",7
same,"hypertension, percentage of patients",of 48 eligible patients,77%
same,"hypothyroidism, number of patients",of 48 eligible patients,15
same,"hypothyroidism, percentage of patients",of 48 eligible patients,31%
same,"proteinuria, number of patients",of 48 eligible patients,20
same,"proteinuria, percentage of patients",of 48 eligible patients,42%
same,"hypertension, number of patients","of 48 eligible patients, all dose levels",37
same,"diarrhea grade 3, number of patients",of thirty-two patients with diarrhea,2
same,effect on bone growth: bone-related AEs,short duration of drug exposure in the majority of patients,no bone-related AEs were identified
same,"Abdominal pain, events (patients)",total TOX,10(10)
same,"Acidosis, events (patients)",total TOX,1(1)
same,"Alanine aminotransferase increased, events (patients)",total TOX,65(28)
same,"Alkaline phosphatase increased, events (patients)",total TOX,2(2)
same,"Anal mucositis, events (patients)",total TOX,1(1)
same,"Anal pain, events (patients)",total TOX,1(1)
same,"Anemia, events (patients)",total TOX,3(3)
same,"Anorexia, events (patients)",total TOX,13(10)
same,"Arthralgia, events (patients)",total TOX,1(1)
same,"Aspartate aminotransferase increased, events (patients)",total TOX,43(21)
same,"Back pain, events (patients)",total TOX,2(2)
same,"Blood bilirubin increased, events (patients)",total TOX,13(7)
same,"Blurred vision, events (patients)",total TOX,1(1)
same,"Bone pain, events (patients)",total TOX,2(1)
same,"Capillary leak syndrome, events (patients)",total TOX,1(1)
same,"Cardiac troponin I increased, events (patients)",total TOX,1(1)
same,"Chest wall pain, events (patients)",total TOX,1(1)
same,"Cholesterol high, events (patients)",total TOX,1(1)
same,"Chronic kidney disease, events (patients)",total TOX,1(1)
same,"Confusion, events (patients)",total TOX,1(1)
same,"Constipation, events (patients)",total TOX,6(2)
same,"Cough, events (patients)",total TOX,1(1)
same,"Creatinine increased, events (patients)",total TOX,1(1)
same,"Dehydration, events (patients)",total TOX,4(4)
same,"Depressed level of consciousness, events (patients)",total TOX,1(1)
same,"Depression, events (patients)",total TOX,1(1)
same,"Diarrhea, events (patients)",total TOX,61(32)
same,"Dizziness, events (patients)",total TOX,5(3)
same,"Dry mouth, events (patients)",total TOX,1(1)
same,"Dry skin, events (patients)",total TOX,1(1)
same,"Dyspepsia, events (patients)",total TOX,3(3)
same,"Dysphasia, events (patients)",total TOX,1(1)
same,"Edema face, events (patients)",total TOX,1(1)
same,"Edema limbs, events (patients)",total TOX,1(1)
same,"Endocrine disorders - Other, specify, events (patients)",total TOX,1(1)
same,"Enterocolitis, events (patients)",total TOX,1(1)
same,"Epistaxis, events (patients)",total TOX,5(4)
same,"Eye disorders - Other, specify, events (patients)",total TOX,1(1)
same,"Fatigue, events (patients)",total TOX,18(16)
same,"Fecal incontinence, events (patients)",total TOX,1(1)
same,"Fever, events (patients)",total TOX,1(1)
same,"Flushing, events (patients)",total TOX,3(1)
same,"GGT increased, events (patients)",total TOX,1(1)
same,"Gastritis, events (patients)",total TOX,1(1)
same,"Gastrointestinal disorders - Other, specify, events (patients)",total TOX,2(2)
same,"Headache, events (patients)",total TOX,10(7)
same,"Hematuria, events (patients)",total TOX,5(3)
same,"Hemoglobin increased, events (patients)",total TOX,6(2)
same,"Hoarseness, events (patients)",total TOX,1(1)
same,"Hydrocephalus, events (patients)",total TOX,1(1)
same,"Hypercalcemia, events (patients)",total TOX,3(2)
same,"Hyperglycemia, events (patients)",total TOX,9(8)
same,"Hyperkalemia, events (patients)",total TOX,2(2)
same,"Hypermagnesemia, events (patients)",total TOX,7(5)
same,"Hypernatremia, events (patients)",total TOX,5(4)
same,"Hypertension, events (patients)",total TOX,57(37)
same,"Hyperthyroidism, events (patients)",total TOX,2(2)
same,"Hypertriglyceridemia, events (patients)",total TOX,1(1)
same,"Hypoalbuminemia, events (patients)",total TOX,26(13)
same,"Hypocalcemia, events (patients)",total TOX,17(8)
same,"Hypoglycemia, events (patients)",total TOX,3(3)
same,"Hypokalemia, events (patients)",total TOX,16(12)
same,"Hypomagnesemia, events (patients)",total TOX,7(5)
same,"Hyponatremia, events (patients)",total TOX,12(6)
same,"Hypophosphatemia, events (patients)",total TOX,14(8)
same,"Hypothyroidism, events (patients)",total TOX,21(15)
same,"Hypoxia, events (patients)",total TOX,1(1)
same,"INR increased, events (patients)",total TOX,1(1)
same,"Intracranial hemorrhage, events (patients)",total TOX,4(4)
same,"Investigations - Other, specify, events (patients)",total TOX,2(2)
same,"Joint effusion, events (patients)",total TOX,1(1)
same,"Leukoencephalopathy, events (patients)",total TOX,1(1)
same,"Lipase increased, events (patients)",total TOX,2(1)
same,"Lymphocyte count decreased, events (patients)",total TOX,24(10)
same,"Malaise, events (patients)",total TOX,2(1)
same,"Mucositis oral, events (patients)",total TOX,3(3)
same,"Myalgia, events (patients)",total TOX,2(2)
same,"Nausea, events (patients)",total TOX,19(10)
same,"Nervous system disorders - Other, specify, events (patients)",total TOX,1(1)
same,"Neutrophil count decreased, events (patients)",total TOX,20(10)
same,"Non-cardiac chest pain, events (patients)",total TOX,1(1)
same,"Oral pain, events (patients)",total TOX,2(2)
same,"Pain in extremity, events (patients)",total TOX,4(4)
same,"Pain, events (patients)",total TOX,1(1)
same,"Palmar-plantar erythrodysesthesia syndrome, events (patients)",total TOX,17(7)
same,"Papilledema, events (patients)",total TOX,1(1)
same,"Pericardial effusion, events (patients)",total TOX,1(1)
same,"Peripheral motor neuropathy, events (patients)",total TOX,1(1)
same,"Platelet count decreased, events (patients)",total TOX,25(18)
same,"Pleural effusion, events (patients)",total TOX,1(1)
same,"Proteinuria, events (patients)",total TOX,36(20)
same,"Rash acneiform, events (patients)",total TOX,2(2)
same,"Rash maculo-papular, events (patients)",total TOX,5(5)
same,"Rectal pain, events (patients)",total TOX,1(1)
same,"Renal and urinary disorders - Other, specify, events (patients)",total TOX,1(1)
same,"Respiratory, thoracic and mediastinal disorders - Other, specify, events (patients)",total TOX,1(1)
same,"Reversible posterior leukoencephalopathy syndrome, events (patients)",total TOX,2(1)
same,"Seizure, events (patients)",total TOX,1(1)
same,"Serum amylase increased, events (patients)",total TOX,1(1)
same,"Skin and subcutaneous tissue disorders - Other, specify, events (patients)",total TOX,1(1)
same,"Skin ulceration, events (patients)",total TOX,1(1)
same,"Stomach pain, events (patients)",total TOX,2(2)
same,"Urinary frequency, events (patients)",total TOX,1(1)
same,"Urinary retention, events (patients)",total TOX,1(1)
same,"Vascular disorders - Other, specify, events (patients)",total TOX,2(2)
same,"Voice alteration, events (patients)",total TOX,2(2)
same,"Vomiting, events (patients)",total TOX,27(13)
same,"Weight loss, events (patients)",total TOX,3(3)
same,"White blood cell decreased, events (patients)",total TOX,18(11)
